Measurements reported in ChEMBL document CHEMBL1795221, “In vitro and in vivo anticancer activity evaluation of ursolic acid derivatives” (Eur J Med Chem, 2011).

What was measured:
HepG2 = assay: cells; details: Homo sapiens, HepG2, 24 h
Description: Cytotoxicity against human HepG2 cells after 24 hrs by MTT assay

BGC-823 = assay: Cytotoxicity against human BGC823 cells after 24 hrs by MTT assay; type: functional, cell-based; details: BGC-823, 24 h
SH-SY5Y = assay: Cytotoxicity against human SH-SY5Y cells after 24 hrs by MTT assay; type: functional, cell-based
[1] = Cytotoxicity against human HELF cells after 24 hrs by MTT assay; type: cell-based
HeLa = assay: cells; details: Homo sapiens, 24 h
Description: Cytotoxicity against human HeLa cells after 24 hrs by MTT assay

| IC50 (HepG2) [µM] | IC50 (HeLa) [µM] | Compound | IC50 (BGC-823) [µM] | IC50 (SH-SY5Y) [µM] | IC50 [1] [µM] |
| --- | --- | --- | --- | --- | --- |
| 35.3 | 20.6 | COC(=O)C(CO)NC(=O)[C@]12CC[C@@H](C)[C@H](C)[C@H]1C1=CC[C@@H]3[C@@]4(C)CC[C@H](OC(C)=O)C(C)(C)[C@@H]4CC[C@@]3(C)[C@]1(C)CC2 (stereo not given in full) | 29 | 37.2 | 22.3 |
| 59.4 | 12.4 | CC(=O)O[C@H]1CC[C@]2(C)[C@H]3CC=C4[C@@H]5[C@@H](C)[C@H](C)CC[C@]5(C(=O)N5CCC(CCO)CC5)CC[C@@]4(C)[C@]3(C)CC[C@H]2C1(C)C | 51.3 | 40.1 | 30 |
| > 100 | > 100 | C[C@H]1[C@H](C)CC[C@]2(C(=O)NC(Cc3ccc(O)cc3)C(=O)O)CC[C@]3(C)C(=CC[C@@H]4[C@@]5(C)CC[C@H](O)C(C)(C)[C@@H]5CC[C@]43C)[C@H]12 (stereo not given in full) | > 100 | > 100 | > 100 |
| 82.4 | 32.3 | C[C@H]1[C@H](C)CC[C@]2(C(=O)NCCO)CC[C@]3(C)C(=CC[C@@H]4[C@@]5(C)CC[C@H](O)C(C)(C)[C@@H]5CC[C@]43C)[C@H]12 | 78.3 | 65 | 52.8 |
| 15.3 | 6.28 | CC(=O)O[C@H]1CC[C@]2(C)[C@H]3CC=C4[C@@H]5[C@@H](C)[C@H](C)CC[C@]5(C(=O)N5CCN(CCOCCO)CC5)CC[C@@]4(C)[C@]3(C)CC[C@H]2C1(C)C | 12.8 | 9.51 | 38.9 |
| 83 | 41.6 | C[C@H]1[C@H](C)CC[C@]2(C(=O)NC(CO)C(=O)O)CC[C@]3(C)C(=CC[C@@H]4[C@@]5(C)CC[C@H](O)C(C)(C)[C@@H]5CC[C@]43C)[C@H]12 (stereo not given in full) | 79.3 | 72.2 | 60.3 |
| 10.3 | 6.62 | CC(=O)O[C@H]1C(=O)[C@@]2(C)[C@H]([C@H](OC(=O)c3ccccc3)[C@]3(O)C[C@H](OC(=O)[C@H](O)[C@@H](NC(=O)c4ccccc4)c4ccccc4)C(C)=C1C3(C)C)[C@]1(OC(C)=O)CO[C@@H]1C[C@@H]2O [PACLITAXEL] | 9.24 | 8.56 | 7.17 |
| 35.7 | 14.4 | C[C@H]1[C@H](C)CC[C@]2(C(=O)N(CCO)CCO)CC[C@]3(C)C(=CC[C@@H]4[C@@]5(C)CC[C@H](O)C(C)(C)[C@@H]5CC[C@]43C)[C@H]12 | 39.3 | 21.4 | 36.9 |
| > 100 | 67 | COC(=O)C(Cc1ccc(O)cc1)NC(=O)[C@]12CC[C@@H](C)[C@H](C)[C@H]1C1=CC[C@@H]3[C@@]4(C)CC[C@H](OC(C)=O)C(C)(C)[C@@H]4CC[C@@]3(C)[C@]1(C)CC2 (stereo not given in full) | 83 | > 100 | 35.8 |
| > 100 | > 100 | CCCOC(=O)[C@]12CC[C@@H](C)[C@H](C)[C@H]1C1=CC[C@@H]3[C@@]4(C)CC[C@H](OC(C)=O)C(C)(C)[C@@H]4CC[C@@]3(C)[C@]1(C)CC2 | > 100 | > 100 | > 100 |
| 79.6 | 36.2 | C[C@H]1[C@H](C)CC[C@]2(C(=O)OCCO[N+](=O)[O-])CC[C@]3(C)C(=CC[C@@H]4[C@@]5(C)CC[C@H](O)C(C)(C)[C@@H]5CC[C@]43C)[C@H]12 | 84.2 | 71.1 | 68.1 |
| 20.5 | 7.24 | CC(=O)O[C@H]1CC[C@]2(C)[C@H]3CC=C4[C@@H]5[C@@H](C)[C@H](C)CC[C@]5(C(=O)N5CCN(CCO)CC5)CC[C@@]4(C)[C@]3(C)CC[C@H]2C1(C)C | 13.9 | 11.7 | 31 |
